In publication PMC5355302, “Arg-Leu-Tyr-Glu tetrapeptide inhibits tumor progression by suppressing angiogenesis and vascular permeability via VEGF receptor-2 antagonism” (Oncotarget, 2016):
One block for each molecule: values may come before it. Where a SMILES comes first, the peptide text is derived from it. Where no end group is shown, it is not given here.

Tests used:
HCT116 tumors = test: HCT116 human colon cancer xenograft in nude mice; type: in vivo, mouse; details: RLYE 0.5 mg/kg/day i.p., CPT-11 17 mg/kg every 5th day, alone or combined, n = 7 per group
Description: Figure 7 RLYE inhibits tumor growth and metastasis by suppressing tumor angiogenesis A. Representative tumors isolated from 29-days-old B16F1 tumor-bearing C57BL/6J mice injected i.p. with saline or RLYE (1 mg/kg) every day. B. Tumor weight on day 29 after injection of B16F1 cells (n = 10 mice per group). C. […] D. Representative images for metastatic nodules of the lungs isolated from C57BL/6J mice, which were injected i.v. with B16F10 melanoma cells and treated with saline or RLYE for 3 weeks. E. Quantification of the number of lung metastatic nodules. […] Representative tumors from 30-day-old HCT116 tumor-bearing mice. (G) Tumor burden was measured every 3 days (n = 8 mice per group). (H) Functional vascularization was quantified by measuring hemoglobin concentration in HCT116 tumor tissues (n = 5). […]
Figure 8 RLYE inhibits vascular leakage and enhances tumor chemosensitivity A. Endothelial cell permeability was determined by diffusion of [^14C]-sucrose through HUVEC monolayers treated with 20 ng/ml of VEGF alone or in combination with RLYE (n = 3). B. Phosphorylation of VE-cadherin was determined in cell lysates of HUVECs treated with 20 ng/ml of VEGF alone or in combination with RLYE. […] Immunostaining of VE-cadherin in endothelial monolayer was determined by confocal microscopy. […] Tumor vascular leakage was determined by the Evans blue method (E and F) or FITC-dextran image assay (G and H). […]

half-life in blood = type: in vivo; details: unpublished data
HCT116 cells = test: MTT cell viability, HCT116 cells; type: cell-based, human; details: up to 30 nM, 24 h
Description: (§1) Mouse melanoma B16F1 and B16F10 cells and human HCT116 colon cancer cells were obtained from American Type Culture Collection (Manassas, VA) and cultured in RPMI medium supplemented with 10% FBS, 1 mM sodium pyruvate, 10 mM 4-(2-hydroxyethyl)-1-piperazineethanesulfonic acid, and 100 U/ml penicillin-streptomycin in a humidified atmosphere of 5% CO2 at 37°C. Human umbilical vein endothelial cells (HUVECs) were maintained and cultured in M199 as described previously, and only passages 2-7 were used for all experiments. Human multiple myeloma IM-9 and RPMI 8226 cells were obtained from Korean Cell Line Bank (Seoul, Korea). The cells were cultured in RPMI-1640 medium in a humidified CO2 incubator. Cell viability or cytotoxicity was evaluated by 3-[4,5-cimethylthiazol-2-yl]-2,5-diphenyl tetrazolium bromide (MTT, Sigma-Aldrich) assay.
(§2) www.impactjournals.com/oncotarget/ Oncotarget, Supplementary Materials 2016
(§3) B. cells were treated the indicated concentration of RLYE for 24 h. Cell viability was determined by MTT assay. […]

HUVECs [1] = test: MTT cell viability, HUVECs; type: cell-based, human; details: 24 h
Description: as §1, §2, §3

[2] = half-life in culture medium; type: in vitro ADME; details: M199 culture medium with 10% heat-inactivated FBS; unpublished data
HUVECs [3] = test: confocal microscopy of FITC-RLYE binding to HUVECs; parameters: species or system human
Description: Figure 5 RLYE binds to endothelial cells through binding to VEGFR-2 A and B. HUVECs were incubated with FITC-conjugated RLYE (RL, 15 nM) before or after treatment with VEGF-A (VE, 100 ng) for 30 min. Cells were analyzed by flow cytometry (A) and quantified (B). Data are the means ± SD (n = 5). **P < 0.01 versus RLYE alone. C and D. HUVEC lysates were incubated with biotinylated RLYE (Bio-RLYE, 0.15 or 1.5 nM), followed by precipitation with streptavidin-agarose beads. The red arrow indicates VEGFR-2 protein bands on a longer exposure film. The precipitates were separated by SDS-PAGE. VEGFR-2 or VEGFR-1 expression was assessed by Western blot analysis. E. HUVECs were treated with or without VEGF-A (10 ng/ml) for 30 min, followed by incubation with FITC-conjugated RLYE (100 ng/ml, green). Cells were incubated with a TRITC-conjugated CD31 antibody (1:100, red) or DAPI (blue). […]
For immunocytochemistry, HUVECs were grown to confluence on glass coverslips coated with 2% gelatin and treated with or without VEGF-A (10 ng/ml) for 30 min, followed by incubation with FITC-RLYE (100 ng/ml). […] Images were photographed and analyzed using a confocal fluorescence microscope. Nuclear staining was performed with 4’, 6-diamidino-2-phenylindole (DAPI, 1 ng/ml), and apoptotic cells were detected using a terminal deoxynucleotidyl transferase dUTP nick end labeling (TUNEL) kit (Roche, Korea).

HUVECs [4] = test: FACS binding of FITC-conjugated RLYE to HUVECs; parameters: species or system human; details: FITC-conjugated RLYE 15 nM, n = 5
Description: Figure 5 RLYE binds to endothelial cells through binding to VEGFR-2 A and B. HUVECs were incubated with FITC-conjugated RLYE (RL, 15 nM) before or after treatment with VEGF-A (VE, 100 ng) for 30 min. Cells were analyzed by flow cytometry (A) and quantified (B). Data are the means ± SD (n = 5). **P < 0.01 versus RLYE alone. C and D. HUVEC lysates were incubated with biotinylated RLYE (Bio-RLYE, 0.15 or 1.5 nM), followed by precipitation with streptavidin-agarose beads. The red arrow indicates VEGFR-2 protein bands on a longer exposure film. The precipitates were separated by SDS-PAGE. VEGFR-2 or VEGFR-1 expression was assessed by Western blot analysis. E. HUVECs were treated with or without VEGF-A (10 ng/ml) for 30 min, followed by incubation with FITC-conjugated RLYE (100 ng/ml, green). Cells were incubated with a TRITC-conjugated CD31 antibody (1:100, red) or DAPI (blue). Confocal microscopy was performed for analyzing binding of RLYE on HUVECs. Scale bar, 10 μm.
HUVECs cultured for 24 h after plating in 60 mm-culture dishes. Cells from subconfluent cultures were gently detached from wells with PBS containing 5 mM EDTA, washed three times with PBS, and resuspended in PBS containing 2% FBS/0.1% bovine serum albumin. Thereafter, they were incubated with FITC-conjugated RLYE (15 nM) before or after treatment with VEGF (100 ng/ml) for 30 min on ice, fixed in 2% paraformaldehyde, and analyzed by flow cytometry in a fluorescence-activated cell sorter (FACSCalibur, Becton Dickinson, Franklin Lakes, NJ).

endothelial cells = system: endothelial cells; parameters: method as in PMID 15013002; details: cited from earlier work
VEGF-A [5] = details: cited from earlier work
Excerpt: Therefore, the VEGF-A/VEGFR-2 system is widely considered a main target of the therapeutic treatment for tumor angiogenesis. Ligation of VEGFR-2 triggers strong proangiogenic signals including p38MAPK/ERK, Src/FAK, and Akt/eNOS through VEGFR-2 phosphorylation, which promote angiogenesis and VEGFR-2 internalization.

VEGF-A [6] = details: read-out: IC50 for VEGF-A; endothelial cell culture conditions; cited from earlier work
VEGFR-2 = details: read-out: IC50 for VEGFR-2; endothelial cell culture conditions; cited from earlier work
[7] = target: human recombinant VEGF receptor-2 (rhVEGFR-2) (human) (UniProt P35968); test: SPR; rhVEGFR-2 immobilised on an activated CM5 chip; RLYE at different concentrations flowed in HBS-EP (10 mM Hepes, 150 mM NaCl, 3 mM EDTA, 0.005% Tween-20) at 25 μl/min, 120 sec injection; Kd from a steady state binding model
Chain of human recombinant VEGF receptor-2 (rhVEGFR-2) (human) (P35968 20-764): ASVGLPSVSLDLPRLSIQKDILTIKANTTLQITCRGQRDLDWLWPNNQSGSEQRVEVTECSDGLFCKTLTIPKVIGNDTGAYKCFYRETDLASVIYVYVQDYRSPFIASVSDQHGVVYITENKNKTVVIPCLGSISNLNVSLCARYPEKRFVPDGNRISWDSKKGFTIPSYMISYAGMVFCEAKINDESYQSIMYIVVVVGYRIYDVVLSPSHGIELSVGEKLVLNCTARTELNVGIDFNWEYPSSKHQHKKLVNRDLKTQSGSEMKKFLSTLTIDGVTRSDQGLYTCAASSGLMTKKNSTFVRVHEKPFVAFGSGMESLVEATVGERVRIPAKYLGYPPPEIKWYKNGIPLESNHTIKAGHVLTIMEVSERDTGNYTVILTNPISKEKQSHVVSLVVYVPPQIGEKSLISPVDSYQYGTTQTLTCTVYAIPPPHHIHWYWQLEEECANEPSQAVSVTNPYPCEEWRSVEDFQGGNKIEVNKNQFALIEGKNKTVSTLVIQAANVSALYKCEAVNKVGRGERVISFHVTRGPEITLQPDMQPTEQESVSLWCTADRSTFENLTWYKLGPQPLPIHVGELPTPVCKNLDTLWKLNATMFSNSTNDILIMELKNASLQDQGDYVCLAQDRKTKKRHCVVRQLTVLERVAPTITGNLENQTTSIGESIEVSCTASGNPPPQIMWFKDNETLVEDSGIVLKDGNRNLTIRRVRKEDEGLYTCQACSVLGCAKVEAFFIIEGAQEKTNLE

Molecule: CCc1c2c(nc3ccc(OC(=O)N4CCC(N5CCCCC5)CC4)cc13)-c1cc3c(c(=O)n1C2)COC(=O)[C@]3(O)CC [CPT-11, irinotecan]
tumor growth in mice bearing HCT116 colon tumor (HCT116 tumors): significantly inhibited tumor growth

half-life in blood (half-life in blood): 1.2 h
half-life [2]: > 18 h
Molecule: CC(C)C[C@H](NC(=O)[C@@H](N)CCCNC(=N)N)C(=O)N[C@@H](Cc1ccc(O)cc1)C(=O)N[C@@H](CCC(=O)O)C(=O)O [RLYE, Arg-Leu-Tyr-Glu] (H-RLYE-OH)
cytotoxic effect on cultured HCT116 cells (HCT116 cells): no cytotoxic effect
cytotoxicity against HUVECs (HUVECs [1]): did not induce any cytotoxicity

binding to the surface of HUVECs (confocal) (HUVECs [3]; FITC-conjugated RLYE 100 ng/ml): bound
binding to the surface of HUVECs after pretreatment with VEGF-A (confocal) (HUVECs [3]; VEGF-A 10 ng/ml 30 min, then FITC-conjugated RLYE 100 ng/ml): effectively blocked
binding to the surface of control HUVECs (HUVECs [4]; 30 min on ice, flow cytometry): bound
blocking of binding to HUVECs by post-incubation with VEGF-A (HUVECs [4]; VEGF 100 ng/ml after the peptide): not
binding to HUVECs after pre-incubation with VEGF-A (HUVECs [4]; VEGF 100 ng/ml before the peptide): blocked
Molecule: FITC-conjugated RLYE: fluorescein isothiocynate (FITC)-conjugated RLYE, purchased from Peptron (also: FITC conjugated, position not given here)

Molecule: Lys-Leu-Tyr-Asp [KLYD, tetrapeptide derived from the kringle 5 of plasminogen]
inhibitory effect on endothelial cell proliferation (endothelial cells): potent inhibitory effect

Molecule: aflibercept: soluble decoy VEGFR-1
affinity to VEGF-A relative to bevacizumab (VEGF-A [5]): several hundred-fold greater

Molecule: bevacizumab: anti-VEGF antibody
IC50 (VEGF-A [6]): 0.15 nM

Molecule: ramucirumab: fully humanized monoclonal antibody bound to the extracellular domain of VEGFR-2
IC50 (VEGFR-2): 1 to 2 nM

Kd [7]: 9000 nM
Molecule: RLYE [Arg-Leu-Tyr-Glu tetrapeptide (RLYE)]
